Measurements as given in patent US7956086B2, “Methods for the formulation and manufacture of artesunic acid for injection” (priority 2006, dated 2011).

How the values were obtained:
[1] = Storage stability of bulk artesunic acid; type: physicochemical; settings: 20 months at 25° C.
Method: Six thousand dry-filled vials of formulated artesunate for clinical use have been packaged. One thousand of the vials have been reserved for long-term stability testing under various conditions, including elevated temperatures and humidities, to test the integrity and durability of the packaging system. As packaged for clinical use, 20 ml vials have been dry-filled with 110 mg of ethylene oxide sterilized artesunate, stoppered, and sealed.
The sterilized bulk drug of the invention has been tested and is still undergoing stability studies. […] The stability studies are still ongoing.

[2] = in vivo
Text: Patients were given a single dose of 1-4 milligrams per kilogram body weight in the form of an injection through an IV catheter (a tube with a needle attached) once a day for 3 days in a row.

[3] = stored under nitrogen @ 25° C., studies at Knoll; cited from earlier work

Compound: C[C@H]1[C@H](OC(=O)CCC(=O)O)O[C@@H]2O[C@@]3(C)CC[C@H]4[C@H](C)CC[C@@H]1[C@@]24OO3 (relative stereo) [artesunic acid, butanedioic Acid, [3R-(3α,5a,6,8a,9α,10α,12,12a R*)]-mono(decahydro-3,6,9-trimethyl-3,12-epoxy-12H-pyrano[4,3-j]-1,2-benzodioxepin-10-yl)ester]
- degradation of sterilized bulk drug on storage [1]: no evidence of degradation
- adverse effects [2]: no adverse effects
- stability of bulk artesunic acid [3]: at least two years stability
